{
  "source": "patent US20130172387A1",
  "about": "“METHOD AND COMPOSITION FOR PROLONGING ANALGESIC EFFECT OF LOCAL ANESTHETIC” (priority 2011, published 2013)",
  "key": {"[1]": {"tested_on": "cutaneous trunci muscle reflex (CTMR)", "test": "Noxious pinprick test of the cutaneous trunci muscle reflex after subcutaneous injection", "type": "in vivo", "conditions": "rat; for time of complete recovery (CRT): s.c. 0.6 ml, mean ± SE, n=8", "description": "Subcutaneous Injection The animal experimental protocol was approved by the Animal Committee of Mackay Memorial Hospital in Taipei, Taiwan. Male Sprague-Dawley rats were purchased from BioLasco (Taipei, Taiwan) and kept in an air-conditioned animal shelter at room temperature of 22° C. to 24° C. with controlled level of humidity (40% to 50%) in a 12-hour light-dark cycle. […] The rats were randomly assigned to treatments with a size of 8 rats per group. All rats were briefly anesthetized by inhalation of 2% isoflurane (Abbott Laboratories, North Chicago, Ill.). The back of each rat was carefully shaved with a razor and was left with no injuries. After the induction of inhalation anesthesia, the drugs were injected subcutaneously in the thoracolumbar region. The injections caused a circular elevation of the skin, creating a wheal of approximately 2 cm in diameter. This wheal was marked within a minute after the injection.\nNeurobehavioral Examination Before the experiments were conducted, the animals were handled daily for up to 14 days to familiarize them with the behavioral investigator, the experimental environment, and the specific experimental protocols. A noxious pinprick test was used to measure the analgesic effect of the cutaneous trunci muscle reflex (CTMR), which is characterized by reflex movements of the skin over the back produced by twitches of the lateral thoracispinal muscles in response to local dorsal cutaneous stimulations. The von Frey filament (26.0 g) was affixed to an 18-gauge needle to standardize the stimulus intensity and to test the neurobehavioral examination. Six pinpricks were applied in the marked areas every 15 minutes after each drug administration until the rats were fully recovered from the block. Six pinpricks per test were sufficient enough to obtain reproducible results in rats among different study groups, while avoiding injury of the skin during repeated testing. […] The total absence of CTMR response was defined as a complete blockade with 100% of maximum possible effect (MPE). Three CTMR pinprick responses indicated a 50% of MPE, while 0% of observed MPE would show the presence of all six CTMR pinprick responses. The complete recovery time (CRT) is defined as the time period when the presence of all six pinprick responses returned with 0% of MPE. All CTMR responses observed in rats were under stable vital signs. To determine skin irritation (such as necrosis, swelling and inflammation), assessment in any macroscopic changes of the skin color and texture was further studied. Systemic side effects such as sedation, agitation, and respiratory distress were also evaluated. The observer was not informed about the drugs used.\nStatistical Analysis The statistical difference between the treatment groups was tested by using Mann-Whitney Rank Sum Test to evaluate the analgesic degree of MPE. Microcal Origin version 7 (Microcal Software, Northampton, Mass.) and SigmaStat (Systat Software, Inc., Chicago, Ill.) were used to calculate the values of MPE, creating figures and analyzing statistics. A p value of less than 0.05 was defined significant. All data are presented as mean±SE."}, "[2]": {"tested_on": "skin", "conditions": "rat, in vivo, sc", "description": "Neurobehavioral Examination Before the experiments were conducted, the animals were handled daily for up to 14 days to familiarize them with the behavioral investigator, the experimental environment, and the specific experimental protocols. A noxious pinprick test was used to measure the analgesic effect of the cutaneous trunci muscle reflex (CTMR), which is characterized by reflex movements of the skin over the back produced by twitches of the lateral thoracispinal muscles in response to local dorsal cutaneous stimulations. […] Three CTMR pinprick responses indicated a 50% of MPE, while 0% of observed MPE would show the presence of all six CTMR pinprick responses. The complete recovery time (CRT) is defined as the time period when the presence of all six pinprick responses returned with 0% of MPE. […] To determine skin irritation (such as necrosis, swelling and inflammation), assessment in any macroscopic changes of the skin color and texture was further studied. Systemic side effects such as sedation, agitation, and respiratory distress were also evaluated. The observer was not informed about the drugs used."}, "[3]": {"tested_on": "subcutaneous tissue", "conditions": "rat, in vivo, sc", "description": "Histology To determine the toxicity of the present composition to the subcutaneous tissue, skin was excised from the injected area of anesthetized rats two days later. The skin cross-section samples were fixed in 4% paraformaldehyde overnight and stained with hematoxylin and eosin.\nTissue inflammation was evaluated by the level of lymphocytic infiltrations in the cinnamaldehyde-injected subcutaneous layer of rats' cross-sectioned skin at 48 h."}, "[4]": {"conditions": "cinnamaldehyde 0.5% alone, or given 10 min before lidocaine 0.5% / bupivacaine 0.0625%"}, "[5]": {"conditions": "cinnamaldehyde 1% alone, or given 10 min before lidocaine 0.5% / bupivacaine 0.0625%"}, "[6]": {"conditions": "cinnamaldehyde 2% alone, or given 10 min before lidocaine 0.5% / bupivacaine 0.0625%"}},
  "note": "Several values for one entry are separate records, joined by “and”; a condition that tells them apart may be missing. Equal entries are not always repeated.",
  "data": [
    {"smiles": "O=CC=Cc1ccccc1", "note": "[Cinnamaldehyde, cinnamaldehyde]", "values": [
      {"measurement": "time of complete recovery (CRT)", "setting": "[1]; [4]", "value": "43.13 ± 5.97 min and 43.13 min"},
      {"measurement": "time of complete recovery (CRT)", "setting": "[1]; [5]", "value": "63.75 ± 4.70 min and 63.75 min"},
      {"measurement": "time of complete recovery (CRT)", "setting": "[1]; [6]", "value": "95.63 ± 3.95 min and 95.63 min"},
      {"measurement": "analgesic effect, dose dependence", "setting": "[1]; s.c., cinnamaldehyde alone at 0.5%, 1% and 2%", "value": "dose-dependent analgesic effect"},
      {"measurement": "skin irritation", "setting": "[2]", "value": "neither obvious change of skin color nor injury was observed"},
      {"measurement": "lymphocytic infiltration (tissue inflammation) in subcutaneous layer", "setting": "[3]", "value": "More lymphocytic infiltrations"}
    ]},
    {"smiles": "CCCCN1CCCCC1C(=O)Nc1c(C)cccc1C", "note": "(centres unmarked) [Bupivacaine, 1-butyl-N-(2,6-dimethylphenyl)piperidine-2-carboxamide]", "values": [
      {"measurement": "time of complete recovery (CRT)", "setting": "[1]; cinnamaldehyde 0% (vehicle): lidocaine 0.5% or bupivacaine 0.0625% alone", "value": "91.88 ± 4.43 min and 91.88 min"},
      {"measurement": "time of complete recovery (CRT)", "setting": "[1]; [4]", "value": 78.75, "unit": "min"},
      {"measurement": "time of complete recovery (CRT)", "setting": "[1]; [5]", "value": "116.25 ± 4.70 min and 116.25 min"},
      {"measurement": "time of complete recovery (CRT)", "setting": "[1]; [6]", "value": "159.38 ± 6.30 min and 159.38 min"},
      {"measurement": "duration of complete nociceptive block", "setting": "[1]; s.c., bupivacaine 0.0625% alone", "value": "approximately 45 minutes"},
      {"measurement": "complete nociceptive block to pinpricks", "setting": "[1]; s.c., cinnamaldehyde 0.5%, 1%, 2% followed 10 min later by bupivacaine 0.0625%", "value": "increased"}
    ]},
    {"smiles": "CCN(CC)CC(=O)Nc1c(C)cccc1C", "note": "[Lidocaine, 2-(diethylamino)-N-(2,6-dimethylphenyl)acetamide]", "values": [
      {"measurement": "time of complete recovery (CRT)", "setting": "[1]; [4]", "value": "65.63 ± 2.74 min and 65.63 min"},
      {"measurement": "time of complete recovery (CRT)", "setting": "[1]; [5]", "value": "106.88 ± 3.40 min and 106.88 min"},
      {"measurement": "time of complete recovery (CRT)", "setting": "[1]; [6]", "value": "157.50 ± 5.67 min and 157.50 min"},
      {"measurement": "duration of complete nociceptive block to pinpricks", "setting": "[1]; s.c., 2% cinnamaldehyde followed 10 min later by 0.5% lidocaine", "value": "about 15 minutes"},
      {"measurement": "analgesic effect, dose dependence", "setting": "[1]; s.c., cinnamaldehyde 0.5%, 1%, 2% followed by 0.5% lidocaine", "value": "Dose dependent analgesic effect"}
    ]}
  ]
}
